Tested on: SEM cells
Test: cell viability relative to DMSO control; higher = less cytotoxic
Details: 48 h
How it was run: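 NOMO1 or SEM cells were plated at 500 cells/well and P12-Ichikawa cells at 1000 cells/well in 1536-well plates (5 μl), after each leukemia line had been adapted for at least four passages in each medium. Pin dosing delivered library compounds in DMSO at 11 threefold concentrations, 47 μM to 0.79 nM. CellTiter-Glo One luminescence was read after 48 h at 37°C. Viability is reported as a per-plate percentage of DMSO wells, with cell-free wells as background.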

[1] = HPLM + 10% dialyzed FBS, 0.000781 µM
[2] = HPLM + 10% dialyzed FBS, 0.00234 µM
[3] = HPLM + 10% dialyzed FBS, 0.00702 µM
[4] = HPLM + 10% dialyzed FBS, 0.0211 µM
[5] = HPLM + 10% dialyzed FBS, 0.0632 µM
[6] = HPLM + 10% dialyzed FBS, 0.19 µM
[7] = HPLM + 10% dialyzed FBS, 0.569 µM
[8] = HPLM + 10% dialyzed FBS, 1.71 µM
[9] = HPLM + 10% dialyzed FBS, 5.12 µM
[10] = HPLM + 10% dialyzed FBS, 15.4 µM
[11] = HPLM + 10% dialyzed FBS, 46.1 µM
[12] = RPMI 5 mM glucose + 10% FBS, 0.000781 µM
[13] = RPMI 5 mM glucose + 10% FBS, 0.00234 µM
[14] = RPMI 5 mM glucose + 10% FBS, 0.00702 µM
[15] = RPMI 5 mM glucose + 10% FBS, 0.0211 µM
[16] = RPMI 5 mM glucose + 10% FBS, 0.0632 µM
[17] = RPMI 5 mM glucose + 10% FBS, 0.19 µM
[18] = RPMI 5 mM glucose + 10% FBS, 0.569 µM
[19] = RPMI 5 mM glucose + 10% FBS, 1.71 µM
[20] = RPMI 5 mM glucose + 10% FBS, 5.12 µM
[21] = RPMI 5 mM glucose + 10% FBS, 15.4 µM
[22] = RPMI 5 mM glucose + 10% FBS, 46.1 µM
[23] = RPMI 5 mM glucose + 10% dialyzed FBS, 0.000781 µM
[24] = RPMI 5 mM glucose + 10% dialyzed FBS, 0.00234 µM
[25] = RPMI 5 mM glucose + 10% dialyzed FBS, 0.00702 µM
[26] = RPMI 5 mM glucose + 10% dialyzed FBS, 0.0211 µM
[27] = RPMI 5 mM glucose + 10% dialyzed FBS, 0.0632 µM
[28] = RPMI 5 mM glucose + 10% dialyzed FBS, 0.19 µM
[29] = RPMI 5 mM glucose + 10% dialyzed FBS, 0.569 µM
[30] = RPMI 5 mM glucose + 10% dialyzed FBS, 1.71 µM
[31] = RPMI 5 mM glucose + 10% dialyzed FBS, 5.12 µM
[32] = RPMI 5 mM glucose + 10% dialyzed FBS, 15.4 µM
[33] = RPMI 5 mM glucose + 10% dialyzed FBS, 46.1 µM

Row | SMILES | cell viability [1] [%] | cell viability [2] [%] | cell viability [3] [%] | cell viability [4] [%] | cell viability [5] [%] | cell viability [6] [%] | cell viability [7] [%] | cell viability [8] [%] | cell viability [9] [%] | cell viability [10] [%] | cell viability [11] [%] | cell viability [12] [%] | cell viability [13] [%] | cell viability [14] [%] | cell viability [15] [%] | cell viability [16] [%] | cell viability [17] [%] | cell viability [18] [%] | cell viability [19] [%] | cell viability [20] [%] | cell viability [21] [%] | cell viability [22] [%] | cell viability [23] [%] | cell viability [24] [%] | cell viability [25] [%] | cell viability [26] [%] | cell viability [27] [%] | cell viability [28] [%] | cell viability [29] [%] | cell viability [30] [%] | cell viability [31] [%] | cell viability [32] [%] | cell viability [33] [%]
1 | Cc1cccc(/C=N/Nc2cc(N3CCOCC3)nc(OCCc3ccccn3)n2)c1 | 99.3 | 93.8 | 102 | 100 | 111 | 87 | 104 | 72.8 | 82.7 | 52.9 | 31.8 | 97.8 | 98.9 | 106 | 109 | 105 | 96.1 | 95.4 | 85.9 | 66.9 | 34.9 | 13.4 | 104 | 100 | 101 | 96.8 | 90.3 | 81.3 | 70.8 | 73.8 | 54.9 | 35.3 | 7.57
2 | C[C@@]1(C(=O)Nc2ccc(F)nc2)CCCN1c1nc(Nc2cc(C3CC3)[nH]n2)c2cccn2n1 | 90.8 | 98.6 | 106 | 97.2 | 101 | 98.8 | 81.9 | 103 | 30.6 | 21.4 | 9.04 | 56.6 | 68.8 | 64.6 | 70.6 | 72.6 | 77.2 | 66.1 | 60.1 | 10.9 | 8.82 | 2.55 | 95.4 | 89.5 | 102 | 107 | 112 | 92.3 | 104 | 96.5 | 18.8 | 16.4 | 6.22
3 | OC1=CC2=C(C(=C1)O)C(=O)\C(=C(/O2)C3=CC(=C(O)C=C3)O)O | 89.1 | 84.2 | 93.4 | 99.4 | 98.2 | 94.4 | 97.4 | 110 | 111 | 94.8 | 75.1 | 79.7 | 97.7 | 106 | 96.1 | 99.6 | 109 | 106 | 105 | 108 | 102 | 71.5 | 83.6 | 85.2 | 92.1 | 88.3 | 111 | 104 | 115 | 101 | 92.6 | 104 | 69.8
4 | CNC(=O)CN1CCC(Oc2cc3c(Nc4cccc(Cl)c4F)ncnc3cc2OC)CC1 | 104 | 110 | 110 | 135 | 112 | 122 | 128 | 130 | 121 | 129 | 104 | 117 | 128 | 116 | 118 | 120 | 130 | 130 | 124 | 125 | 122 | 84.9 | 114 | 113 | 120 | 141 | 138 | 152 | 140 | 149 | 125 | 138 | 88.8
5 | Nc1ncnc2c1c(-c1cccc(OCc3ccccc3)c1)cn2C1CC(CN2CCCC2)C1 (stereo unspecified) | 97.6 | 112 | 120 | 108 | 113 | 111 | 89.8 | 83.1 | 63.8 | 45.4 | 29.6 | 89.4 | 113 | 125 | 115 | 128 | 121 | 103 | 95.3 | 87.8 | 54.8 | 31.5 |  |  |  |  |  |  |  |  |  |  | 
6 | COC1=CC=C2/C3=N/CCN3\C(=N/C2=C1OC)NC(=O)C4=CC=CN=C4 | 98.5 | 98.2 | 106 | 96.8 | 101 | 104 | 96.7 | 103 | 87.1 | 82.5 | 64.1 | 91.6 | 94.4 | 99.7 | 89.5 | 99.5 | 79.4 | 85.2 | 99.6 | 76.6 | 80.6 | 55.7 | 122 | 111 | 111 | 103 | 117 | 113 | 99 | 92.9 | 84 | 81.1 | 69.2
7 | COc1cccc2c1CCCC2CCCN1CCN(C2CCCCC2)CC1 (stereo unspecified) | 88.4 | 85 | 80.9 | 91.1 | 91.6 | 110 | 96.9 | 88.8 | 97.1 | 83.5 | 55.3 | 87.8 | 85.6 | 89.9 | 91.1 | 101 | 107 | 103 | 97 | 81.3 | 79.1 | 42.9 | 87.7 | 83.3 | 97 | 102 | 111 | 114 | 104 | 91 | 96.7 | 87.6 | 52.5
8 | O=C(Nc1cccnn1)N1CCC(=Cc2cccc(Oc3ccc(C(F)(F)F)cn3)c2)CC1 | 81.8 | 86.8 | 84.4 | 21.1 | 94.9 | 98 | 92.5 | 85 | 90 | 81.3 | 75.6 | 104 | 115 | 112 | 17.1 | 119 | 127 | 121 | 139 | 118 | 103 | 87.8 | 92.8 | 92.6 | 89.8 | 17 | 113 | 112 | 106 | 98.4 | 93.7 | 78.3 | 55.8
9 | COC1=CC=C2CN(C)CC[C@@]34\C=C/[C@H](O)C[C@@H]3OC1=C24 | 119 | 113 | 115 | 27 | 117 | 111 | 114 | 126 | 103 | 119 | 103 |  |  |  |  |  |  |  |  |  |  |  | 108 | 111 | 126 | 25.3 | 114 | 125 | 104 | 107 | 96.3 | 100 | 99.3
10 | CO/N=C(\C(=O)N[C@@H]1C(=O)N2C(C(=O)OCOC(=O)C(C)(C)C)=C(/C=C\c3scnc3C)CS[C@H]12)c1csc(N)n1 | 75.6 | 89.4 | 86.9 | 80.8 | 93.7 | 101 | 94.8 | 97.3 | 86.7 | 90.6 | 70.4 | 87.1 | 90.7 | 91.4 | 76.6 | 89 | 103 | 91.5 | 98.9 | 86.5 | 65.2 | 58.5 | 75.3 | 101 | 108 | 93.7 | 119 | 102 | 99.4 | 125 | 105 | 73 | 62.9
11 | COc1cccc2c1[C@]13CCN(CC4CC4)[C@H](C2)[C@]1(OC)CCC(=O)C3 | 71.3 | 90.6 | 20 | 108 | 106 | 105 | 107 | 109 | 116 | 120 | 111 | 89.4 | 123 | 8.7 | 113 | 116 | 107 | 97 | 113 | 122 | 98.4 | 110 | 81.2 | 108 | 18.8 | 99.8 | 105 | 106 | 84.6 | 97.4 | 93.3 | 95.6 | 80.7
12 | CCN1CCN(C(=O)Cc2ccc(Nc3ncc(F)c(Nc4ccc(C(=O)Nc5ccccc5Cl)cc4)n3)cc2)CC1 | 79.1 | 90.8 | 97.2 | 111 | 109 | 107 | 108 | 83.1 | 61.2 | 33.6 | 27.6 | 81.8 | 108 | 103 | 108 | 118 | 105 | 101 | 82.4 | 58.8 | 11.5 | 8.62 | 80.4 | 89.3 | 111 | 97.6 | 116 | 118 | 101 | 81.6 | 54.4 | 19.1 | 14.6
13 | N=C1N[C@H]2[C@H](CS[C@H]2CCCCC(=O)O)N1 | 80.4 | 109 | 91.8 | 97.2 | 111 | 108 | 25.3 | 112 | 117 | 112 | 109 | 87.6 | 115 | 108 | 106 | 107 | 107 | 15.4 | 115 | 110 | 115 | 121 | 108 | 105 | 111 | 118 | 117 | 101 | 18.4 | 121 | 122 | 124 | 128
14 | CC(C)OC1=CC=C2C(=C1)O\C=C(/C2=O)C3=CC=CC=C3 | 106 | 118 | 105 | 118 | 115 | 123 | 110 | 125 | 112 | 133 | 106 | 113 | 123 | 134 | 109 | 131 | 130 | 133 | 144 | 128 | 144 | 116 | 106 | 133 | 121 | 126 | 129 | 146 | 157 | 156 | 147 | 148 | 126
15 | OCc1ccc(-c2ccc(-c3ccc(CO)s3)o2)s1 | 117 | 118 | 94.3 | 115 | 107 | 103 | 104 | 103 | 88.6 | 77.7 | 93.8 | 87.3 | 105 | 83.8 | 81.5 | 79.1 | 87.8 | 79.3 | 80.6 | 77.1 | 61.3 | 66.7 | 114 | 124 | 95.7 | 113 | 119 | 105 | 110 | 99.4 | 83.9 | 85.8 | 114
16 | CC(C)[C@H](N)C(=O)OCCOC[N]1C=NC2=C1\N=C(N)/NC2=O | 92.4 | 101 | 119 | 127 | 121 | 117 | 119 | 116 | 103 | 115 | 107 | 80.4 | 85.4 | 104 | 109 | 116 | 95.3 | 102 | 90.5 | 92.7 | 98.7 | 78 | 107 | 112 | 126 | 134 | 122 | 123 | 126 | 166 | 112 | 133 | 99

Source: the supplement of paper PMC11451515
